Each structure is given as a SMILES string. “Also recorded” adds a separate entry of the source. Like-named read-outs stand apart in the source and are kept apart here.

From publication PMC7901699, “Challenging inflammatory process at molecular, cellular and in vivo levels via some new pyrazolyl thiazolones” (Journal of Enzyme Inhibition and Medicinal Chemistry, 2021) come the findings set out here.

The test system of data set [1] is rat stomach. The note with it: in vivo, po, 5 mg/kg.
The test system of data set [2] is THP-1 cells. The data set can be described thus: Monocyte-to-macrophage differentiation assay, M1 polarisation (PMA then LPS). In kind it is cell-based, human. The note with it: for IC50: Homo sapiens, THP-1, 6 h pre-incubation, PMA 25 nM 24 h then LPS 100 ng/ml 72 h, MTS, read-out: IC50 inhibition of THP-1 monocyte differentiation into M1 macrophages. The method, then:
(§1) Monocytes were cultured and differentiated as described previously. THP-1 cells (human acute monocytic leukaemia lineage, American Type Culture Collection, Manassas, VA) were seeded at a density of 20 × 10^5 cells/ml. A set of cells were exposed to 25 nM of phorbol myristate-acetate (PMA, Calbiochem, Darmstadt, Germany) for 24 h to drive differentiation. Another set was similarly treated with PMA followed by 100 ng/ml of lipopolysaccharide (LPS, invivogen, San Diego, CA, USA) for 72 h. After incubation, the supernatant was aspirated and the density of the adherent cells was estimated using MTS colorimetric cell viability kit (Abcam, Cambridge, UK). The inhibitory actions of different compounds on the differentiation process were evaluated by pre-incubation with different concentrations of each compound for 6 h. Cell viability after treatment was normalised to the reading after PMA exposure following a 6-h incubation with DMSO. All experiments were conducted in triplicates. A positive control for the effect of COX1/COX2 inhibition on monocyte-to-macrophage differentiation was obtained by treatment with diclofenac. IC50 values for each compound were determined by non-linear regression as the best fit values of the log [inhibitor] vs. response curve using GraphPad Prism software.

The target of data set [3] is T1, human recombinant COX-2 (Homo sapiens, UniProt P35354).
T1 construct: purchased Cayman Chemicals Inc. 560131
T1 sequence (P35354 18-604): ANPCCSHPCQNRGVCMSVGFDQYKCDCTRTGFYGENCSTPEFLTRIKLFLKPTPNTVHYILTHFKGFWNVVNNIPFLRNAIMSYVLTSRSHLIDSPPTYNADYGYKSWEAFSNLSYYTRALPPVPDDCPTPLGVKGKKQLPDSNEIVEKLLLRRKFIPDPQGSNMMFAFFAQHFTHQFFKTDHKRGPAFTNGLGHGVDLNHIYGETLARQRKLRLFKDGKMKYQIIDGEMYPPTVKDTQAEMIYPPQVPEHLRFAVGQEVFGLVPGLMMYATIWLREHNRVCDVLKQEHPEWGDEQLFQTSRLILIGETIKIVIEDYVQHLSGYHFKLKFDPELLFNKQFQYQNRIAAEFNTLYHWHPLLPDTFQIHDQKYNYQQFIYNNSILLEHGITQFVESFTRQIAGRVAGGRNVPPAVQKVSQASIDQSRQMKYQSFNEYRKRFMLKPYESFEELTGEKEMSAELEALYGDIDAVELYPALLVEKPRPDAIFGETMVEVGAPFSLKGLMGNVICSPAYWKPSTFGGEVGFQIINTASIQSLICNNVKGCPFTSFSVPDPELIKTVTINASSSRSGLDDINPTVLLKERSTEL
The data set can be described thus: In vitro COX-2 inhibition assay (colorimetric COX inhibitor screening kit, Cayman). The note with it: for SI (COX-1/ COX-2): IC50 (COX-1)/IC50 (COX-2); for IC50: mean of three determinations. In kind it is biochemical. As to the method: (§2) Both assays were carried out in compliance with the manufacturer’s instructions and in accordance to prior studies[29]^,[33].
(§3) IC50 values (μM) and selectivity indices (SI) were calculated.

For data set [4], the system named is IL-1β. The data set can be described thus: IL-1β protein expression by Western blotting. In kind it is cell-based, human. The settings on record: 100 μM compound; PMA 24 h then LPS 72 h; normalised to GAPDH. The method, then: THP-1 monocytes were exposed to 100 μM of the test compounds, activated with 25 nM PMA for 24 h followed by 100 ng/ml LPS for 72 h. At the end of the incubation period, cells were harvested, proteins were extracted and SDS-PAGE electrophoresis, blotting, and antibody probing were conducted as described previously. Primary rabbit polyclonal antibodies to IL-1β, procaspase-3, and GAPDH were obtained from Abcam (Cambridge, UK). Clarity Western ECL substrate (BioRad, Hercules, CA, USA) was used to obtain a chemiluminescence signal captured by a Chemidoc imaging system (BioRad, Hercules, CA, USA). Band density was estimated using ImageJ software (National Institutes of Health, Bethesda, MD) and normalised to the GAPDH band density as a loading control.

Data set [5] concerns cotton pellet-induced granuloma. As to the kind of experiment: Cotton pellet-induced granuloma assay (chronic inflammation model). The note with it: oral 5 mg/kg daily; pellets excised on 8th day; vs diclofenac sodium and celecoxib; 5 mg/kg.
Data set [6] addresses T2, 15-LOX (Glycine max, UniProt P08170).
T2 construct: purchased Cayman chemicals 760700
T2 sequence (P08170 1-839): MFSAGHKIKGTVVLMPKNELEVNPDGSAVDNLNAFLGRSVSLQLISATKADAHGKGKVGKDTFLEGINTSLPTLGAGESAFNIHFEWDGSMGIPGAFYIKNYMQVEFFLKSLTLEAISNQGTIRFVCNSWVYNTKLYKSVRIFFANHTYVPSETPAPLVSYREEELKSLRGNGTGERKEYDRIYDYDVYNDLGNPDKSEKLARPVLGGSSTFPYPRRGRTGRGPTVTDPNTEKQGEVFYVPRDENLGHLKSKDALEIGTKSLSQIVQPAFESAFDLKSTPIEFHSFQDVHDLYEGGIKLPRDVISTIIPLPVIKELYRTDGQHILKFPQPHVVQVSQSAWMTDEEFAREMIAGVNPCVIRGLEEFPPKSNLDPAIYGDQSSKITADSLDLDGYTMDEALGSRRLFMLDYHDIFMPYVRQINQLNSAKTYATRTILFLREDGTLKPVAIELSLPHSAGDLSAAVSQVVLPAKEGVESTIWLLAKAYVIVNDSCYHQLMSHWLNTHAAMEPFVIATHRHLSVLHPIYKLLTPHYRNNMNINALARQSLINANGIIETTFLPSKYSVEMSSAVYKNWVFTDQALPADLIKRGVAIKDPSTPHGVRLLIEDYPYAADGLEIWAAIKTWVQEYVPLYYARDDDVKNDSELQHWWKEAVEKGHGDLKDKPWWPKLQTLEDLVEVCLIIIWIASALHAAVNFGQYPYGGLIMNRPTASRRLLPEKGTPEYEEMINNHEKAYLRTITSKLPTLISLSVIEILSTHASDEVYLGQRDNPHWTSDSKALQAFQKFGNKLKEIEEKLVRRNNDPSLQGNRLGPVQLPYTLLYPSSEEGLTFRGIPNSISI
The data set can be described thus: In vitro 15-LOX inhibition assay (lipoxygenase inhibitor screening kit, Cayman). In kind it is biochemical. The settings on record: mean of three determinations. The method, then: as §2, §3

The target of data set [7] is T3, ovine COX-1 (Ovis aries, UniProt P05979).
T3 construct: purchased Cayman Chemicals Inc. 560131
T3 sequence (P05979 25-600): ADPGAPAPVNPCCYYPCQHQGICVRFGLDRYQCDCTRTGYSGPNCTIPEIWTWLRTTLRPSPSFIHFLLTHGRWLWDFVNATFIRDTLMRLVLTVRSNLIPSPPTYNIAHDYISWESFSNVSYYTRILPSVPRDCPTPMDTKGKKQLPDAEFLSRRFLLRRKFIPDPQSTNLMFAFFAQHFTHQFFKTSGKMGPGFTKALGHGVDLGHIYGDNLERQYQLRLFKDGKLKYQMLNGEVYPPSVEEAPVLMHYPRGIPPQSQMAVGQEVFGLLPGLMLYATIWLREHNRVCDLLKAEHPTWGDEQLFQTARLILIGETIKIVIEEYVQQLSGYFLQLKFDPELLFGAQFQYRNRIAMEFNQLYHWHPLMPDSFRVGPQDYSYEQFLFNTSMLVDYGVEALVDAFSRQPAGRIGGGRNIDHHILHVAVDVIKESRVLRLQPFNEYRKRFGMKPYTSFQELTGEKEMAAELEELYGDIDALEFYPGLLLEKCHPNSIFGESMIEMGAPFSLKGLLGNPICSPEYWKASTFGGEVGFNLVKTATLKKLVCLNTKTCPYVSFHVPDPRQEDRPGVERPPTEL
The data set can be described thus: In vitro COX-1 inhibition assay (colorimetric COX inhibitor screening kit, Cayman). The note with it: mean of three determinations. The data set is classed as biochemical. As to the method:
as §2, §3

Data set [8] deals with THP-1 cells. The data set can be described thus: Monocyte-to-macrophage differentiation assay, resting M0 macrophages (PMA only). The settings on record: data not shown. In kind it is cell-based, human. As to the method: as §1
In data set [9] the test system is rat stomach. As to the kind of experiment: Gastric ulcerogenic activity and histopathological examination. The settings on record: stomach removed on 8th day of administration, 5 mg/kg oral.
Data set [10] concerns PMA/LPS-stimulated THP-1 (M1 macrophages). As to the kind of experiment: Cytotoxicity assay on differentiated M1 macrophages (MTS). In kind it is cell-based, human. The settings on record: PMA 24 h, LPS 24 h, then compound 24 h; up to 100 μM. The method, then: To confirm that the previous observations were a consequence of interference of the compounds with the differentiation process rather than a reduction in monocyte viability, THP-1 monocytes were incubated with different concentrations of the compound for 30 h. No difference in cell viability was detected. Moreover, the cytotoxic effects of the drugs on differentiated macrophages were evaluated. Following the incubation of THP-1 cells with 25 nM PMA for 24 h and 100 ng/ml LPS for 24 h, the differentiated macrophages were treated with different concentrations of the compounds for 24 h. Cell viability was assessed using MTS colorimetric cell viability kit (Abcam, Cambridge, UK).

Consider `Cc1ccc(-c2cc(C(F)(F)F)nn2-c2ccc(S(N)(=O)=O)cc2)cc1` [Celecoxib], for which, in data set [1], the “Gross observation of isolated rat stomachs” value (shortened to “Gross observation”) is on record as “normal stomach texture” and the “Histopathological examination of stomach gastric layers” value is listed as “no ulceration with normal gastro-esophageal junction”.
Take `COc1ccc(-c2nn(-c3ccccc3)cc2/C=C2\SC(N3CCOCC3)=NC2=O)cc1` [Compound 8, (Z)-5-((3-(4-methoxyphenyl)-1-phenyl-1H-pyrazol-4-yl)methylene)-2-morpholinothiazol-4(5H)-one]: the IC50 in data set [2] is 347 µM; in data set [3], 0.11 µM; in [6] it was 4.64 µM; in [7], 12.4 µM. Further, the “SI (COX-1/ COX-2)” value in [3] is listed as 113. For the same compound, the “IL-1β expression in PMA/LPS-challenged THP-1” value in data set [4] is listed as “attenuating IL-1β production”. In addition, the “Inhibition of cotton pellet granuloma weight (in words)” value in [5] is “superior anti-inflammatory activity, when compared to diclofenac and celecoxib; also recorded: increased inhibition of granuloma weight in comparison to both celecoxib and diclofenac”.
As to `O=C(O)Cc1ccccc1Nc1c(Cl)cccc1Cl` [Diclofenac Na, Diclofenac sodium, reference compound], the IC50 in data set [2] stood at 101 µM. In data set [8], the “IC50 for M0 macrophage differentiation (in words)” value is recorded as “comparable IC50 to that observed for the M1 macrophage differentiation”. Also, the “Gross observation” value in data set [9] is reported as “normal stomach texture”.
With `O=C1N=C(N2CCOCC2)S/C1=C\c1cn(-c2ccccc2)nc1-c1ccccc1` [Compound 4, (Z)-5-((1,3-diphenyl-1H-pyrazol-4-yl)methylene)-2-morpholinothiazol-4(5H)-one], the “M1 macrophage cell viability” value in data set [10] is recorded as “tended to slightly decrease”. Besides, the IC50 in data set [2] worked out at 11.3 µM; in [3], 0.14 µM; in data set [6], 4.63 µM; in data set [7], 11.3 µM. In addition, the “Inhibition of THP-1 differentiation into M1 macrophages (in words)” value in data set [2] (PMA then LPS, diclofenac as reference) is recorded as “potent inhibitory effects on monocyte-to-macrophage differentiation; also recorded: higher potency compared to diclofenac”. The “SI (COX-1/ COX-2)” value in data set [3] was found to be 80. The “IL-1β expression in PMA/LPS-challenged THP-1” value in data set [4] is “attenuating IL-1β production”. Moreover, in data set [9], the “Gross observation” value is “variable levels of hyperaemia without gross ulceration”. The “Histopathological examination of stomach gastric layers” value in [9] (H&E, 5 mg/kg) was “esophago-gastric inflammation; also recorded: gastro-esophageal inflammatory infiltrates”.
